Laboratory results taken from US10125126B2, “N-cycloalkyl-N-[(heterocyclylphenyl)methylene]-(thio)carboxamide derivatives” (BAYER CROPSCIENCE AG, priority 2012, dated 2018).

Legend:
[1] = tested on: Puccinia recondita; assay: In vivo preventive test on Puccinia recondita (brown rust on wheat); conditions: wheat plants, 12 days after contamination
Experimental: In Vivo Preventive Test on Puccinia recondita (Brown Rust on Wheat) […] Wheat plants (“Scipion” variety), sown in starter cups on a 50/50 peat soil pozzolana substrate and grown at 22° C., are treated at the 1 leaf stage (10 cm height) by spraying with the active ingredient prepared as described above. Plants, used as controls, are treated with the mixture of acetone/tween/DMSO/water not containing the active material. After 24 hours, the plants are contaminated by spraying the leaves with an aqueous suspension of Puccinia recondita spores (100 000 spores per mL). The spores are collected from an infected plant and are suspended in water containing 2.5 mL/L of Tween 80 at 10%. […] Grading (% of efficacy) is carried out 12 days after the contamination, in comparison with the control plants.

[2] = log P by HPLC on a reversed-phase column (C 18), EEC Directive 79/831 Annex V.A8; assay type: physicochemical; conditions: HPLC on reversed-phase column (C 18), 40° C., 0.1% aqueous formic acid and acetonitrile, linear gradient 10% to 90% acetonitrile
Experimental: In table 1, the log P values were determined in accordance with EEC Directive 79/831 Annex V.A8 by HPLC (High Performance Liquid Chromatography) on a reversed-phase column (C 18), using the method described below: Temperature: 40° C.; Mobile phases: 0.1% aqueous formic acid and acetonitrile; linear gradient from 10% acetonitrile to 90% acetonitrile. Calibration was carried out using unbranched alkan-2-ones (comprising 3 to 16 carbon atoms) with known log P values (determination of the log P values by the retention times using linear interpolation between two successive alkanones). lambda-max-values were determined using UV-spectra from 200 nm to 400 nm and the peak values of the chromatographic signals.

[3] = tested on: Septoria tritici; assay: In vivo preventive test on Septoria tritici (wheat); conditions: wheat plants, 24 days after contamination
Experimental: In Vivo Preventive Test on Septoria tritici (Wheat) […] Wheat plants (“Scipion” variety), sown in starter cups on a 50/50 peat soil pozzolana substrate and grown at 22° C., are treated at the 1 leaf stage (10 cm height) by spraying with the active ingredient prepared as described above. Plants, used as controls, are treated with the mixture of acetone/tween/DMSO/water not containing the active material. After 24 hours, the plants are contaminated by spraying the leaves with an aqueous suspension of cryopreserved Septoria tritici spores (500 000 spores per mL). The contaminated wheat plants are incubated for 72 hours at 18° C. and at 100% relative humidity, and then for 21 days at 90% relative humidity. Grading (% of efficacy) is carried out 24 days after the contamination, in comparison with the control plants.

[4] = tested on: Uromyces appendiculatus; assay: In vivo preventive test on Uromyces appendiculatus (bean rust); conditions: bean plants, 11 days after contamination
Experimental: In Vivo Preventive Test on Uromyces appendiculatus (Bean Rust) […] Bean plants (“Saxa” variety), sown in starter cups on a 50/50 peat soil pozzolana substrate and grown at 24° C., are treated at the 2 leaf stage (9 cm height) by spraying with the active ingredient prepared as described above. Plants, used as controls, are treated with the mixture of acetone/tween/DMSO/water not containing the active material. After 24 hours, the plants are contaminated by spraying the leaves with an aqueous suspension of Uromyces appendiculatus spores (150 000 spores per mL). The spores are collected from infected plants and are suspended in water containing 2.5 mL/L of Tween 80 at 10%. […] Grading (% of efficacy) is carried out 11 days after the contamination, in comparison with the control plants.

[5] = tested on: Botrytis cinerea; assay: In vivo preventive test on Botrytis cinerea (grey mould); conditions: gherkin plants, 4 to 5 days after contamination
Experimental: In Vivo Preventive Test on Botrytis cinerea (Grey Mould) […] Gherkin plants (“Vert petit de Paris” variety), sown in starter cups on a 50/50 peat soil pozzolana substrate and grown at 24° C., are treated at the Z11 cotyledon stage by spraying with the active ingredient prepared as described above. Plants, used as controls, are treated with the mixture of acetone/tween/DMSO/water not containing the active material. After 24 hours, the plants are contaminated by spraying the cotyledons with an aqueous suspension of cryopreserved Botrytis cinerea spores (50 000 spores per mL). The spores are suspended in a nutrient solution composed of 10 g/L of PDB, 50 g/L of D-Fructose, 2 g/L of NH4NO3 and 1 g/L of KH2PO4. The contaminated gherkin plants are incubated at 17° C. and at 90% relative humidity. Grading (% of efficacy) is carried out 4 to 5 days after the contamination, in comparison with the control plants.

[6] = tested on: Sphaerotheca fuliginea; assay: In vivo preventive test on Sphaerotheca fuliginea (powdery mildew on cucurbits); conditions: gherkin plants, 12 days after contamination
Experimental: In Vivo Preventive Test on Sphaerotheca fuliginea (Powdery Mildew on Cucurbits) […] Gherkin plants (“Vert petit de Paris” variety), sown in starter cups on a 50/50 peat soil-pozzolana substrate and grown at 24° C., are treated at the Z11 cotyledon stage by spraying with the active ingredient prepared as described above. Plants, used as controls, are treated with the mixture of acetone/tween/DMSO/water not containing the active material. After 24 hours, the plants are contaminated by spraying the cotyledons with an aqueous suspension of Sphaerotheca fuliginea spores (100 000 spores per mL). The spores are collected from infected plants. […] Grading (% of efficacy) is carried out 12 days after the contamination, in comparison with the control plants.

| SMILES | Efficacy ([1]; 100 ppm of active ingredient) [%] | logP [2] | Efficacy ([3]; 100 ppm of active ingredient) [%] | Efficacy ([4]; 100 ppm of active ingredient) [%] | Efficacy ([5]; 500 ppm of active ingredient) [%] | Efficacy ([1]; 500 ppm of active ingredient) [%] | Efficacy ([6]; 500 ppm of active ingredient) [%] | Efficacy ([3]; 500 ppm of active ingredient) [%] | Efficacy ([4]; 500 ppm of active ingredient) [%] | Efficacy ([6]; 100 ppm of active ingredient) [%] | Efficacy ([5]; 100 ppm of active ingredient) [%] |
| --- | --- | --- | --- | --- | --- | --- | --- | --- | --- | --- | --- |
| Cn1cc(C(=O)N(Cc2cc(F)ccc2C2(C)CO2)C2CC2)c(C(F)F)n1 (centres unmarked) [I.6] | 81 | 2.53 | 92 | 73 |  |  |  |  |  |  |  |
| Cn1cc(C(=O)N(Cc2cc(Cl)ccc2-c2ccc(Cl)s2)C2CC2)c(C(F)F)c1 [I.146] |  | 4.85 |  |  | 100 |  |  |  |  |  |  |
| Cn1cc(-c2ccc(Cl)cc2CN(C(=O)c2c(C(F)F)nn(C)c2F)C2CC2)cn1 [I.55] |  | 2.80 |  |  |  | 95 | 100 | 95 | 99 |  |  |
| Cc1ccc(-c2ccsc2Cl)c(CN(C(=O)c2c(C(F)F)nn(C)c2F)C2CC2)c1 [I.150] | 81 | 4.26 | 80 |  |  |  |  |  |  | 100 | 90 |
| CC1=NOC(C)(c2ccc(C)cc2CN(C(=O)c2c(C(F)F)nn(C)c2F)C2CC2)C1 (centres unmarked) [I.111] | 88 | 2.98 |  | 100 |  |  |  |  |  | 100 |  |
| Cn1nc(C(F)F)c(C(=O)N(Cc2ccccc2Oc2nc(Cl)cc(Cl)n2)C2CC2)c1F [I.168] |  | 3.50 |  |  |  | 81 | 83 | 80 | 99 |  |  |
| Cn1nc(C(F)F)c(C(=O)N(Cc2cc(Cl)ccc2-c2csc3ccccc23)C2CC2)c1F [I.155] |  | 4.74 |  |  |  | 75 |  | 86 | 99 |  |  |
| Cn1cc(C(=O)N(Cc2ccccc2-c2ccsc2)C2CC2)c(C(F)F)n1 [I.70] |  | 3.17 |  |  |  | 78 | 85 | 86 | 96 |  |  |
| COc1ccsc1-c1ccc(C)cc1CN(C(=O)c1c(C(F)F)nn(C)c1F)C1CC1 [I.125] | 81 | 3.83 | 96 |  |  |  |  |  |  | 95 | 78 |
| Cn1nc(C(F)F)c(C(=O)N(Cc2ccccc2-c2cccs2)C2CC2)c1F [I.69] |  | 3.64 |  |  |  | 94 | 100 | 97 | 100 |  |  |
| Cn1ccc(-c2ccc(Cl)cc2CN(C(=O)c2c(C(F)F)nn(C)c2F)C2CC2)c1 [I.48] |  | 3.71 |  |  |  | 75 |  | 86 | 96 |  |  |
| Cn1nc(C(F)F)c(C(=O)N(Cc2ccccc2C2COC2)C2CC2)c1F [I.1] |  | 1.51 |  |  |  | 75 | 93 |  | 83 |  |  |
| Cn1nc(C(F)F)c(C(=O)N(Cc2ccccc2-c2csc3ccccc23)C2CC2)c1F [I.156] |  | 4.27 |  |  | 97 | 81 | 95 | 96 |  |  |  |
| Cn1nc(C(F)F)c(C(=O)N(Cc2ccccc2-c2ccc(Cl)s2)C2CC2)c1Cl [I.141] |  | 4.51 |  |  | 90 | 86 |  | 83 |  |  |  |
| Cn1nc(C(F)F)c(C(=O)N(Cc2ccccc2-c2ccsc2)C2CC2)c1Cl [I.76] |  | 3.71 |  |  |  | 93 |  | 75 | 96 |  |  |
| Cc1ccc(-c2ccoc2)c(CN(C(=O)c2c(C(F)F)nn(C)c2Cl)C2CC2)c1 [I.37] | 81 | 3.71 |  | 83 |  |  |  |  |  |  |  |
| Cn1nc(C(F)F)c(C(=O)N(Cc2cc(F)ccc2C2(C)CO2)C2CC2)c1Cl (centres unmarked) [I.8] | 94 | 3.00 |  | 95 |  |  |  |  |  |  |  |
| Cn1nc(C(F)F)c(C(=O)N(Cc2ccccc2-c2cccs2)C2CC2)c1Cl [I.78] |  | 3.78 |  |  | 78 |  |  | 83 | 85 |  |  |
| Cc1ccc(-c2cnn(C)c2)c(CN(C(=O)c2cn(C)nc2C(F)F)C2CC2)c1 [I.59] |  | 2.37 |  |  |  |  |  |  |  |  | 81 |
| Cn1cc(-c2ccc(F)cc2CN(C(=O)c2c(C(F)F)nn(C)c2F)C2CC2)cn1 [I.56] |  | 2.50 |  |  |  | 78 | 98 | 100 | 85 |  |  |
| Cn1nc(C(F)F)c(C(=O)N(Cc2cc(-c3ccco3)ccc2Cl)C2CC2)c1Cl [I.35] |  | 4.01 |  |  |  |  |  |  |  |  | 94 |
| Cc1ccc(-c2cscc2C)c(CN(C(=O)c2c(C(F)F)nn(C)c2F)C2CC2)c1 [I.108] |  | 4.25 | 86 |  |  |  |  |  |  | 75 | 100 |
| CC(c1ccccc1-c1ccsc1)N(C(=O)c1c(C(F)F)nn(C)c1F)C1CC1 (centres unmarked) [I.82] | 81 | 3.78 | 97 |  |  |  |  |  |  | 98 | 97 |
| Cn1cc(C(=O)N(Cc2ccccc2-c2ccco2)C2CC2)c(C(F)F)n1 [I.31] |  | 2.96 |  |  |  |  |  |  |  |  | 81 |
| Cn1cc(C(=O)N(Cc2cc(-c3cccs3)ccc2Cl)C2CC2)c(C(F)F)n1 [I.84] |  | 3.68 | 71 |  |  |  |  |  |  |  | 100 |
